Broadly, the EC50 is the concentration that produces a half-maximal response.

≈ marks a conversion by molar mass, not a printed value.

The values below come from US10694746B2, “Fungicidal composition” (JIANGSU HUIFENG BIO AGRICULTURE CO., LTD., priority 2016, dated 2020).

Holding throughout (assay type): in vivo
The test system of experiment [1] is cucumber downy mildew. Kind of experiment: Toxicity test of BIT combined with mancozeb on cucumber downy mildew (bioassay). The note with it: for ATI (actual toxicity index): (EC50 of standard/EC50 of test agent)*100, standard BIT; for EC50: cucumber downy mildew.
Experiment [2] concerns potato late blight. As to conditions: for ATI (actual toxicity index): (EC50 of standard/EC50 of test agent)*100, standard MBIT; for EC50: potato late blight.
Experiment [3] deals with apple anthracnose. Description: Toxicity test of BBIT combined with mancozeb on apple anthracnose (bioassay). As to conditions: for ATI (actual toxicity index): (EC50 of standard/EC50 of test agent)*100, standard BBIT; for EC50: apple anthracnose.

With `O=c1[nH]sc2ccccc12` [BIT, 1,2-benzisothiazolin-3-one], in experiment [1], the “ATI (actual toxicity index)” value was found to be 100.00 and the EC50 amounted to 13.5 µg/mL.
On to mancozeb, for which the results for the “ATI (actual toxicity index)” value in experiment [1], in experiment [2] and in experiment [3] were 17.96, 21.69 and 20.67, respectively. In addition, the EC50 in experiment [1] was found to be 75.17 µg/mL; in experiment [2], 68.27 µg/mL; in experiment [3], 92.36 µg/mL.
In the case of `CCCCn1sc2ccccc2c1=O` [BBIT, 2-n-butyl-1,2-benzisothiazolin-3-one], in experiment [3], the “ATI (actual toxicity index)” value turned out to be 100 and the EC50 came out at 19.09 µg/mL.
For `Cn1sc2ccccc2c1=O` [MBIT, 2-methyl-1,2-benzisothiazolin-3-one], in experiment [2], the “ATI (actual toxicity index)” value is on record as 100.00 and the EC50 came out at 14.81 µg/mL (≈ 89.6 µM).
